This note sets out measurements from patent US10010614B2, “Derivatives of GLP-1 like peptides, and uses thereof” (Novo Nordisk A/S, priority 2013, dated 2018).

The target in data set [1] is T1, human GLP-1 receptor (Homo sapiens, UniProt P43220).
T1 construct: expressed in transfected cells; host or cells: membranes prepared from BHK cells (parent line BHKTS13), clone FCW467-12A
The experiment in a line: In vitro potency, CRE luciferase reporter gene assay in BHK cells expressing the human GLP-1 receptor. The class given is cell-based. The conditions noted are these: whole cell reporter gene assay, 3 h incubation, no HSA, averages of at least two replicates. The gist of the method:
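Stably transfected BHK cells (5×10^3/well) expressing human GLP-1R with a CRE-luciferase reporter; compounds diluted in buffer with 2% ovalbumin and 0.2% Pluronic F-68, final 1×10^−7 to 1×10^−14 M. Incubated 3 h at 37 °C, 5% CO2, then luminescence read; potency from non-linear log(agonist)–response fit, mean of ≥2 replicates.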

Data set [2] has as its target T1, human GLP-1 receptor. As to the kind of experiment: GLP-1 receptor binding, competitive binding assay (125I-GLP-1, SPA) on isolated membranes.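 Also: test compounds added at a range of concentrations to membranes from cells expressing the human GLP-1 receptor, scored by displacement of labelled ligand, read with WGA SPA beads.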
Method: The purpose of this example is to test the receptor binding of the GLP-1 derivatives in vitro. The receptor binding is a measure of affinity of a derivative for the human GLP-1 receptor.
In this type of assay a labelled ligand (in this case ^125I-GLP-1) is bound to the receptor. Each derivative is added in a series of concentrations to isolated membranes containing the human GLP-1 receptor and displacement of the labelled ligand is monitored. The receptor binding is reported as the concentration at which half of the labelled ligand is displaced from the receptor, the IC50 value.
The following chemicals were used in the assay: Human serum albumin (HSA) (Sigma A1653), DMEM w/o phenol red (Gibco 11880-028), Pen/strep (Invitrogen 15140-122), G418 (Invitrogen 10131-027), 1 M Hepes (Gibco 15630), EDTA (Invitrogen 15575-038), PBS (Invitrogen 14190-094), fetal calf serum (Invitrogen 16140-071), EGTA, MgCl2 (Merck 1.05832.1000), Tween 20 (Amresco 0850C335), SPA particles (wheat germ agglutinin (WGA) SPA beads, Perkin Elmer RPNQ0001), [^125I]-GLP-1]-(7-36)NH2 (produced in-house), OptiPlate™-96 (Packard 6005290).
Buffer 1 consisted of 20 mM Na-HEPES plus 10 mM EDTA and pH was adjusted to 7.4. Buffer 2 consisted of 20 mM Na-HEPES plus 0.1 mM EDTA and pH was adjusted to 7.4. Assay buffer consisted of 50 mM HEPES supplemented with 5 mM EGTA, 5 mM MgCl2, 0.005% Tween 20 and pH was adjusted to 7.4. An 8% albumin stock consisted of HSA dissolved at 8% (w/v) in assay buffer. An 0.02% albumin stock consisted of HSA dissolved at 0.02% (w/v) in assay buffer.
The cells express the human GLP-1 receptor.
The cells were grown at 5% CO2 in DMEM, 10% fetal calf serum, 1% Pen/Strep (Penicillin/Streptomycin) and 1.0 mg/ml of the selection marker G418.
To make a membrane preparation the cells were grown to approximately 80% confluence. The cells were washed twice in phosphate-buffered saline and harvested. The cells were pelleted using a brief centrifugation and the cell pellet was kept on ice. The cell pellet was homogenised with ULTRA-THURRAX™ dispersing instrument for 20-30 seconds in a suitable amount of buffer 1 (e.g., 10 ml). The homogenate was centrifuged for 15 minutes. The pellet was re-suspended (homogenised) in 10 ml buffer 2 and centrifuged. This step was repeated once more. The resulting pellet was re-suspended in buffer 2 and the protein concentration was determined. The membranes were aliquoted and stored at minus 80° C.
For the receptor binding assay in the presence of low HSA (0.005%) 50 μl of the assay buffer was added to each well of an assay plate.
For the receptor binding assay in the presence of high HSA (2%) 50 μl of the 8% albumin stock was added to each well of an assay plate.
Cell membrane aliquots were thawed and diluted to their working concentration. Fifty μl were added to each well in the assay plate.
WGA SPA beads were suspended in assay buffer at 20 mg/ml. The suspension was diluted to 10 mg/ml in assay buffer just prior to addition to the assay plate. Fifty μl were added to each well in the assay plate.
The incubation was started by adding 25 μl of 480 pM solution of [^125I]-GLP-1]-(7-36)NH2 to each well of the assay plate. A 25 μl aliquot was reserved for measuring total counts/well.
The assay plate was incubated for 2 h at 30° C.
The assay plate was centrifuged for 10 min.
The assay plate was read in a Packard TopCount NXT instrument.
The data from the TopCount instrument were transferred to GraphPad Prism software. The software averaged the values for the replicates and performed a non-linear regression. IC50 values were calculated by the software and reported in nM.
A short description of data set [3]: Pharmacokinetic study in minipigs (i.v.). The conditions noted are these: male, Göttingen, minipig, plasma, iv; read-out: Terminal half-live (converted). The class given is in vivo. As for the experimental part:
The purpose of this study is to determine the protraction in vivo of the GLP-1 derivatives after i.v. administration to minipigs, i.e. the prolongation of their time in the body and thereby their time of action. This is done in a pharmacokinetic (PK) study, where the terminal half-life of the derivative in question is determined. By terminal half-life is meant the time it takes to halve a certain plasma concentration in the terminal elimination phase.
The derivatives of Examples 1-5 were dosed with 2 nmol/kg, the derivative of Example 6 was dosed with 5 nmol/kg, and the derivatives of Examples 7-9 were dosed with 15 nmol/kg.
Male Göttingen minipigs were obtained from Ellegaard Göttingen Minipigs (Dalmose, Denmark) approximately 7-14 months of age and weighing approximately 16-35 kg were used in the studies. The minipigs were housed either individually (pigs with permanent catheters) or in a group and fed restrictedly once or twice daily with SDS minipig diet (Special Diets Services, Essex, UK).
After at least 2 weeks of acclimatisation two permanent central venous catheters were implanted in vena cava caudalis or cranialis in each animal. The animals were allowed 1 week recovery after the surgery, and were then used for repeated pharmacokinetic studies with a suitable wash-out period between successive GLP-1 derivative dosings.
The GLP-1 derivatives were dissolved in 50 mM sodium phosphate, 70-145 mM sodium chloride, 0.05% tween 80, pH 7.4 to a concentration of usually from 20-60 nmol/ml.
Intravenous injections (the volume corresponding to for example 0.050-0.125 ml/kg) of the compounds were given through one catheter or through the venflon, and blood was sampled at predefined time points for up till 25 days post dosing (preferably through the other catheter or by venipuncture). Blood samples (for example 0.8 ml) were collected in EDTA buffer (8 mM) and then centrifuged at 4° C. and 1942G for 10 minutes.
Plasma was pipetted into Micronic tubes on dry ice, and kept at −20° C. until analysed for plasma concentration of the respective GLP-1 compound using LOCI. Individual plasma concentration-time profiles were analyzed by a non-compartmental pharmacokinetic method in Phoenix v. 6.2 (Pharsight Inc., Mountain View, Calif., USA), or other relevant software for PK analysis, and the resulting terminal half-lives (harmonic mean) determined.

Where [4] appears, read: High HSA IC50 (nM), high serum albumin (2.0% HSA final assay concentration).
[5] abbreviates: Low HSA IC50 (nM), low serum albumin (max. 0.001% final assay concentration).

Molecules are shown by their SMILES. Numbered stars: 1 amine (or outer) side, 2 acyl side, 3 side chain; on linkers, the order of the positions; unused ones are H or OH. Square brackets hold non-standard residues; d marks the D form. Side chains are listed from the residue outwards. Peptide text beside a SMILES is read from it. * marks the point of attachment. C22 diacid = O=C(O)CCCCCCCCCCCCCCCCCCCCC(=O)*; C20 diacid = O=C(O)CCCCCCCCCCCCCCCCCCC(=O)*; γGlu = O=C(O)[C@H](CCC(=O)[*:2])N[*:1]; Trx = NC[C@H]1CC[C@H](C(=O)O)CC1; AEEA = NCCOCCOCC(=O)O; Aib = CC(C)(N)C(=O)O

T1 sequence (P43220 24-463): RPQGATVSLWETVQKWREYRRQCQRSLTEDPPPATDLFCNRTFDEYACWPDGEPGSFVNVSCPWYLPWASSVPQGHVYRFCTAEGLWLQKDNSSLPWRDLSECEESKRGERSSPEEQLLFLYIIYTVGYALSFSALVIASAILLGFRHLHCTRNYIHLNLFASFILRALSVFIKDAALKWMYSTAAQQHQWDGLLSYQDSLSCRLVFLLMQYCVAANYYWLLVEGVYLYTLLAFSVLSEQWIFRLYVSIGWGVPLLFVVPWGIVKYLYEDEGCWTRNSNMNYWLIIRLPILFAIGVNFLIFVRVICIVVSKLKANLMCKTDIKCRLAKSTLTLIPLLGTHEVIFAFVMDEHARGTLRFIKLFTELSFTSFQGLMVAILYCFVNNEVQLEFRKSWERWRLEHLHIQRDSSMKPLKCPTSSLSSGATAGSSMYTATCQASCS

As for `CC[C@H](C)[C@H](NC(=O)[C@H](Cc1ccccc1)NC(=O)[C@H](CCC(=O)O)NC(=O)[C@H](CCCNC(=N)N)NC(=O)[C@H](C)NC(=O)[C@H](C)NC(=O)[C@H](CCC(N)=O)NC(=O)[C@H](CCC(=O)O)NC(=O)[C@H](CCC(=O)O)NC(=O)[C@H](CC(C)C)NC(=O)[C@H](Cc1ccc(O)cc1)NC(=O)[C@H](CO)NC(=O)[C@H](CO)NC(=O)[C@@H](NC(=O)[C@H](CC(=O)O)NC(=O)[C@H](CO)NC(=O)[C@@H](NC(=O)[C@H](Cc1ccccc1)NC(=O)[C@@H](NC(=O)CNC(=O)[C@H](CCC(=O)O)NC(=O)C(C)(C)NC(=O)[C@@H](N)Cc1c[nH]cn1)[C@@H](C)O)[C@@H](C)O)C(C)C)C(=O)N[C@@H](C)C(=O)N[C@@H](CCCCNC(=O)COCCOCCNC(=O)COCCOCCNC(=O)CC[C@H](NC(=O)[C@H]1CC[C@H](CNC(=O)CCCCCCCCCCCCCCCCCCC(=O)O)CC1)C(=O)O)C(=O)N[C@@H](CC(C)C)C(=O)N[C@H](C(=O)N[C@@H](CCCNC(=N)N)C(=O)NCC(=O)N[C@@H](CCCNC(=N)N)C(=O)NCC(=O)NCC(=O)NCC(=O)NCC(=O)N[C@@H](CO)C(=O)N[C@@H](CCCCNC(=O)COCCOCCNC(=O)COCCOCCNC(=O)CC[C@H](NC(=O)[C@H]1CC[C@H](CNC(=O)CCCCCCCCCCCCCCCCCCC(=O)O)CC1)C(=O)O)C(=O)O)C(C)C` [Example 2] (H-H[Aib]EGTFTSDVSSYLEEQAAREFIAK([AEEA-AEEA-γGlu-Trx-C20 diacid])LVRGRGGGGSK([AEEA-AEEA-γGlu-Trx-C20 diacid])-OH), the 50% effective concentration (EC50) at human GLP-1 receptor [1] came out at 0.036 nM. Further, the IC50 on human GLP-1 receptor [2] (setting [4]) is not below 1000 nM; at human GLP-1 receptor [2] (setting [5]) it was 1.4 nM. The half-life in data set [3] is 110 h.

As for `CC[C@H](C)[C@H](NC(=O)[C@H](Cc1ccccc1)NC(=O)[C@H](CCC(=O)O)NC(=O)[C@H](CCCNC(=N)N)NC(=O)[C@H](C)NC(=O)[C@H](C)NC(=O)[C@H](CCC(N)=O)NC(=O)[C@H](CCC(=O)O)NC(=O)[C@H](CCC(=O)O)NC(=O)[C@H](CC(C)C)NC(=O)[C@H](Cc1ccc(O)cc1)NC(=O)[C@H](CO)NC(=O)[C@H](CO)NC(=O)[C@@H](NC(=O)[C@H](CC(=O)O)NC(=O)[C@H](CO)NC(=O)[C@@H](NC(=O)[C@H](Cc1ccccc1)NC(=O)[C@@H](NC(=O)CNC(=O)[C@H](CCC(=O)O)NC(=O)C(C)(C)NC(=O)[C@@H](N)Cc1c[nH]cn1)[C@@H](C)O)[C@@H](C)O)C(C)C)C(=O)N[C@@H](C)C(=O)N[C@@H](Cc1c[nH]c2ccccc12)C(=O)N[C@@H](CC(C)C)C(=O)N[C@H](C(=O)N[C@@H](CCCNC(=N)N)C(=O)NCC(=O)N[C@@H](CCCNC(=N)N)C(=O)NCC(=O)N[C@@H](CCCCNC(=O)COCCOCCNC(=O)COCCOCCNC(=O)CC[C@H](NC(=O)[C@H]1CC[C@H](CNC(=O)CCCCCCCCCCCCCCCCCCCCC(=O)O)CC1)C(=O)O)C(=O)NCC(=O)NCC(=O)N[C@@H](CO)C(=O)N[C@@H](CCCCNC(=O)COCCOCCNC(=O)COCCOCCNC(=O)CC[C@H](NC(=O)[C@H]1CC[C@H](CNC(=O)CCCCCCCCCCCCCCCCCCCCC(=O)O)CC1)C(=O)O)C(=O)O)C(C)C` [Example 9] (H-H[Aib]EGTFTSDVSSYLEEQAAREFIAWLVRGRGK([AEEA-AEEA-γGlu-Trx-C22 diacid])GGSK([AEEA-AEEA-γGlu-Trx-C22 diacid])-OH), the EC50 on human GLP-1 receptor [1] was 0.101 nM. Moreover, the results for the IC50 at human GLP-1 receptor [2] (setting [4]) and at human GLP-1 receptor [2] (setting [5]) were 21 nM and 1.6 nM, respectively. Also, in data set [3], the half-life was 167 h.

`CC[C@H](C)[C@H](NC(=O)[C@H](Cc1ccccc1)NC(=O)[C@H](CCC(=O)O)NC(=O)[C@H](CCCNC(=N)N)NC(=O)[C@H](C)NC(=O)[C@H](C)NC(=O)[C@H](CCC(N)=O)NC(=O)[C@H](CCC(=O)O)NC(=O)[C@H](CCC(=O)O)NC(=O)[C@H](CC(C)C)NC(=O)[C@H](Cc1ccc(O)cc1)NC(=O)[C@H](CCCCNC(=O)COCCOCCNC(=O)COCCOCCNC(=O)CC[C@H](NC(=O)[C@H]1CC[C@H](CNC(=O)CCCCCCCCCCCCCCCCCCC(=O)O)CC1)C(=O)O)NC(=O)[C@H](CO)NC(=O)[C@@H](NC(=O)[C@H](CC(=O)O)NC(=O)[C@H](CO)NC(=O)[C@@H](NC(=O)[C@H](Cc1ccccc1)NC(=O)[C@@H](NC(=O)CNC(=O)[C@H](CCC(=O)O)NC(=O)C(C)(C)NC(=O)[C@@H](N)Cc1c[nH]cn1)[C@@H](C)O)[C@@H](C)O)C(C)C)C(=O)N[C@@H](C)C(=O)N[C@@H](Cc1c[nH]c2ccccc12)C(=O)N[C@@H](CC(C)C)C(=O)N[C@H](C(=O)N[C@@H](CCCNC(=N)N)C(=O)NCC(=O)N[C@@H](CCCNC(=N)N)C(=O)NCC(=O)NCC(=O)NCC(=O)NCC(=O)N[C@@H](CO)C(=O)N[C@@H](CCCCNC(=O)COCCOCCNC(=O)COCCOCCNC(=O)CC[C@H](NC(=O)[C@H]1CC[C@H](CNC(=O)CCCCCCCCCCCCCCCCCCC(=O)O)CC1)C(=O)O)C(=O)O)C(C)C` [Example 6] (H-H[Aib]EGTFTSDVSK([AEEA-AEEA-γGlu-Trx-C20 diacid])YLEEQAAREFIAWLVRGRGGGGSK([AEEA-AEEA-γGlu-Trx-C20 diacid])-OH): the EC50 on human GLP-1 receptor [1] worked out at 0.093 nM. Besides, the half-maximal inhibitory concentration (IC50) on human GLP-1 receptor [2] (setting [4]) was not below 1000 nM; at human GLP-1 receptor [2] (setting [5]), 1 nM. Also, in data set [3], the half-life is 99 h.
